Here are results for seven molecules from US20070287691A1, “METHOD FOR ACTIVATING THE LIPID CATABOLIC METABOLISM IN ENTERIC EPITHELIUM AND IMPROVING THE LIPID METABOLISM IN ENTERIC EPITHELIUM” (KAO CORPORATION, priority 2001, published 2007).

SMILES strings stand for the structures.

The test concerns rat small-intestine epithelial cell strain, IEC-6. Description: Inhibition test of triacylglycerol synthesis in the small intestine epithelium (Nile Red, FACS). Format: cell-based. Conditions: relative value, linoleic acid = 100; 200 μM, 24 hours. How it is done:
Using FCS (fetal calf serum)-free, Dulbecco's modified Eagle's medium (D-MEM) with 5% FBS and 70 μg/mL kanamycin added therein, a rat small-intestine epithelial cell strain, IEC-6, was incubated under 5% CO2 at 37° C. […] Twenty-four hours later, the individual cultures were washed with PBS and subsequent to treatment with tripsin, were peeled off from Culture dishes. Those cultures were separately suspended in portions of HBSS which contained Nile Red (100 ng/mL). Subsequent to incubation at room temperature for […], FACS analysis was conducted. From average fluorescence intensities, synthesized quantities of triacylglycerols were measured.

Regarding `CCCCC/C=C\C/C=C\C/C=C\C/C=C\CCCC(=O)O` [Arachidonic acid], the “Fluorescence intensity (synthesized quantity of triacylglycerols)” value (“Fluorescence intensity” for short) was determined as 87.

`CC/C=C\C/C=C\C/C=C\C/C=C\C/C=C\C/C=C\CCC(=O)O` [Docosahexaenoic acid]: the “Fluorescence intensity” value was determined as 49.

As to `CC/C=C\C/C=C\C/C=C\C/C=C\C/C=C\CCCC(=O)O` [Eicosapentaenoic acid], the “Fluorescence intensity” value turned out to be 52.

With `CCCCC/C=C\C/C=C\CCCCCCCC(=O)O` [Linoleic acid], the “Fluorescence intensity” value is on record as 100.

As for `CCCCCCCC/C=C\CCCCCCCC(=O)O` [Oleic acid], the “Fluorescence intensity” value is listed as 191.

`CC/C=C\C/C=C\C/C=C\CCCCCCCC(=O)O` [α-Linolenic acid]: the “Fluorescence intensity” value was 42.

In the case of `CCCCC/C=C\C/C=C\C/C=C\CCCCC(=O)O` [γ-Linolenic acid], the “Fluorescence intensity” value stood at 70.
